The values that follow are results of earlier work, collected in patent publication US12023406B2, “Gastric residence systems with release rate-modulating films” (Lyndra Therapeutics, Inc., priority 2017, dated 2024).

For the series the following is noted: gastric pH range.

SMILES strings stand for the structures.

With `Cc1nc2n(c(=O)c1CCN1CCC(c3noc4cc(F)ccc34)CC1)CCCC2` [risperidone], the “solubility at pH 1.5 versus pH 4.8” value was “significantly higher at the more acidic end of the gastric pH range”.
